The nature of series [1]: Acute drug overdose test: cocaine-induced lethality. In kind it is in vivo, mouse. How it is done:
For all behavioral experiments except where noted, C57BL/6J mice were used. Roughly equal numbers of adult male and female mice were group-housed until surgery. Mice were maintained under controlled temperature and humidity conditions on a 12 h:12 h light:dark cycle (lights on at 7:00). Water and food were available ad libitum. Mice weighed around 25-30 g at the beginning of the experiments. All procedures followed National Institutes of Health Guide for the Care and Use of Laboratory Animal and were approved by the University of Chicago Institutional Animal Care and Use Committee.
Drug: Cocaine HCl and methamphetamine HCl (Sigma-Aldrich, Saint Louis, MO) were dissolved in sterile saline and delivered intraperitoneally at appropriates doses in a volume of 10 mL/kg. Ethanol (Sigma-Aldrich, Saint Louis, MO, 95%, density=0.816) was prepared in 20% (v/v) diluted in sterile saline and delivered intraperitoneally at appropriate doses. Vehicle (sterile saline) was intraperitoneally administered at 10 mL/kg as a control.
Acute drug overdose test: Two weeks after grafting surgery, 4 groups of GhBChE and 4 groups of GWT mice (n=8 each in each group) received i.p. injections of cocaine at […]. As a control, 4 groups of GhBChE and 4 groups of GWT mice (n=8 each) received i.p. injections of methamphetamine (METH) at 34, 68 (LD50), 100, and 160 mg/kg. Two each of GhBChE and GWT mice with CD1 mice as hosts were also used to videotape acute cocaine (80 mg/kg) induced behaviors. Mice were monitored for 2 h following injection and percent of cocaine- and METH-induced lethality was calculated.
To first determine whether engrafting hBChE-expressing cells protects mice from acute systemic toxicity of cocaine, we delivered different doses of cocaine to grafted mice and calculated the lethality rates of cocaine. […] Parallel testing was conducted to test the toxicity of a related stimulant METH (methamphetamine) in GhBChE and GWT mice.

Series [2] concerns epidermal progenitor cells. Put plainly: Suicide gene-induced cell death in epidermal progenitor cells upon prodrug treatment. In kind it is cell-based. As to conditions: ganciclovir and 5-fluorocytosine, respectively; data not shown. The source says: To test this possibility, a Rosa26 targeting vector encoding phenylalanine ammonia lyase (PAL) (SEQ ID NO: 51) together with inducible “suicide” genes HSV-TK (Herpes Simplex Virus Thymidine Kinase) (SEQ ID NO: 52) and yCD (yeast cytosine deaminase) (SEQ ID NO: 53) was used for epidermal progenitor cell transfection.

For series [3] the following is noted: i.p., mice; cited from earlier work.
The conditions of series [4]: WT GGBP; read-out: glucose binding affinity (Kd); cited from earlier work.
Series [5] has as its target T1, GLP-1 receptor (Mus musculus, UniProt O35659).
T1 construct: host or cells: living mice (endogenous receptor)
T1 sequence (O35659 22-463): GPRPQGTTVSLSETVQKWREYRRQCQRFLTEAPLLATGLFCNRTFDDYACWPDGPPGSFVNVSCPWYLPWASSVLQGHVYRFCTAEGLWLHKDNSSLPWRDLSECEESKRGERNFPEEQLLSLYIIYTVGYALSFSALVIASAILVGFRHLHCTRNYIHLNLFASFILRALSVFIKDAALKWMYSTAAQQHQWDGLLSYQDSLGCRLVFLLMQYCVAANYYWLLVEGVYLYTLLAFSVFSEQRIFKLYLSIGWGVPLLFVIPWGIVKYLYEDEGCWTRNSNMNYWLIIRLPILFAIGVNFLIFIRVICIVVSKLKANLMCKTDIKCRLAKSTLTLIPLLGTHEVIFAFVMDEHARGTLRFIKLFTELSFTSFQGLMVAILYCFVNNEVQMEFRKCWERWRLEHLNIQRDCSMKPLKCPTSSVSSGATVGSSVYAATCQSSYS
As to conditions: mice; cited from earlier work.

Series [6] deals with mouse epidermal stem cells. The series is described as follows: Cell proliferation and differentiation of engineered mouse epidermal cells in vitro (cell cycle FACS, calcium shift western blot). In kind it is cell-based. As for the experimental part:
Primary human neonatal epidermal keratinocytes were obtained from Thermo Fischer® (C0015C), and cultured with Epilife® medium (Thermo Fischer, M-EPICF-500) with manufacturer's recommended procedures. Calcium shift was performed to induce differentiation of primary keratinocytes by increasing the calcium concentration in culture media to 1.5 mM.
Propidium iodide (PI) staining followed by flow cytometry were used to determine the effect of cell cycle profiles. Mouse and human epidermal cells were cultured in two 6 cm cell culture dish for 24 hours, respectively. Cells were trypsinized, and 1×10^5 cells from each dish were collected, followed by one PBS wash. […] After staining, the cells were analyzed immediately using flow cytometer BD FACSCanto™ II (BD Biosciences, San Jose, CA) with an excitation wavelength at 488 nm and emission at 585 nm. DNA content and histograms of cell cycle distribution were analyzed using FlowJo™ software, version 10 (FLOWJO LLC, OR).
Western blotting was performed as described previously (Blanpain et al.). […] Visualization and quantification was carried out with the LI-COR Odyssey® scanner and software (LI-COR Biosciences).
Propidium iodide (PI) staining followed by flow cytometry were used to determine the effect of cell cycle profiles. […] DNA content and histograms of cell cycle distribution were analyzed using FlowJo™ software, version 10 (FLOWJO LLC, OR). […]
For orientation: Immunoblotting shows a protein as a band on a membrane.

Series [7] in a line: Phenylalanine clearance by PAL-expressing mouse epidermal keratinocytes in vitro. In kind it is cell-based. The source says: Therefore, using CRISPR-mediated genome editing with epidermal progenitor cell technology the possibility for treatment of PKU by cutaneous expression of PAL is investigated.
A complete phenotypic change from brown hair coat to dark black fur is also expected. For tissue enzymatic analysis, PAL activity detection in grafted skin is expected but not in other tissues. PAH activity is absent in the liver of the mutant mice. Female mice are more resistant to PKU therapy. If this is the case for cutaneous gene therapy, female PAH mutant mice are tested to determine whether they require larger skin grafts or more grafts than male mice for correction of hyperphenylalaninemia.

Series [8] in a line: PKU mouse model (PAH mutant, BTBR strain) grafted with PAL-expressing cells: plasma phenylalanine, fur color, tissue enzyme activity. The series is classed as in vivo. As to conditions: PAH mutant mice, ~2 mM plasma phenylalanine. The source says: The mouse model of PKU has been developed by ENU (N-ethyl-N-nitrosourea)-mediated mutagenesis in BTBR strain (Jax strain 002232).
With establishment of skin engraftment in PAH mutant mice, plasma phenylalanine level are monitored. Three weeks post skin grafting with PAL expressing cells or control cells (BTBR epidermal progenitor cells treated with control vectors), blood samples are collected from the tail clipping biweekly for up to 30 weeks. Plasma is separated by centrifugation. Phenylalanine concentration is determined by established fluorometric protocol. Lowering of phenylalanine level restores melanin biosynthesis, and leads to a change of fur color. Potential alteration in fur coat color is recorded weekly for all the grafted animals. […] Thus, two different cohorts of animals (male and female) are established to test the potential gender-dependent effect of cutaneous gene therapy in vivo.
At the endpoint of the experiment (30 weeks), grafted animals are euthanized and tissue samples (grafted skin, host skin, and liver) are collected. Presence of enzyme activity in the tissues is determined by PAH and PAL activity assay.
A complete phenotypic change from brown hair coat to dark black fur is also expected. For tissue enzymatic analysis, PAL activity detection in grafted skin is expected but not in other tissues. PAH activity is absent in the liver of the mutant mice. […]

In the case of `COC(=O)[C@H]1[C@@H](OC(=O)c2ccccc2)C[C@@H]2CC[C@H]1N2C` [cocaine], the lethality result is “roughly 50%” in series [1] (80 mg/kg i.p., control mice grafted with WT epidermal cells (GWT)); 100% in series [1] (120 mg/kg i.p., GWT mice); 100% in series [1] (160 mg/kg i.p., GWT mice).
“HSV-TK: inducible suicide gene, Herpes Simplex Virus Thymidine Kinase (SEQ ID NO: 52), prodrug ganciclovir”: the “cell death upon prodrug treatment” value in series [2] was “efficiently induced cell death upon treatment with prodrugs”.
Consider `CN[C@@H](C)Cc1ccccc1` [METH, methamphetamine], for which the LD50 (in general, the dose at which mortality reaches 50%) in series [3] is given as 68 mg/kg.
Turning to “WT (wild type) GGBP: wild type glucose/galactose-binding protein of E. coli periplasm”, the dissociation constant (Kd) – broadly, the equilibrium constant for the complex coming apart – in series [4] was 0.2 µM.
Turning to Exendin-4, the “effect on nicotine-induced behaviours” value in series [5] is “attenuates nicotine-induced locomotor stimulation, accumbal dopamine release, and the expression of conditioned place preference in mice”.
Turning to “PAL: Phenylalanine ammonia-lyase (SEQ ID NO: 51) expressed in epidermal keratinocytes”, the “effect of expression on cell proliferation / differentiation in vitro” value in series [6] is listed as “does not significantly alter cell proliferation or differentiation in vitro”. For the same compound, in series [7] (lentivirus-infected mouse epidermal keratinocytes, preliminary), the “degradation of phenylalanine in culture media compared with PAH” value is reported as “much faster than cells expressing PAH”. Further, in series [7] (two 1 cm^2 epidermal grafts, ~2×10^7 metabolically active cells), the “phenylalanine removal by grafts” value is 57 pmol of phenylalanine per day. In series [8], the effect on hyperphenylalaninemia entry is “sufficient for a complete reversal of hyperphenylalaninemia”.
